Source: patent publication US12492173B2, “Herbicidal substituted N-tetrazolyl aryl carboxamides” (Bayer Aktiengesellschaft, priority 2019, dated 2025)

Experiments:
Format in all cases: in vivo
Abutilon theophrasti = test: Post-emergence herbicidal action, ABUTH; set-up: key: % herbicidal action vs untreated; 100 = plants died, 0 = like control
Outline: (§1)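 After sowing into sandy loam, plants grew 2 to 3 weeks under greenhouse conditions until one leaf, then got a spray of compound as aqueous suspension or emulsion. Roughly three weeks on, activity was estimated visually against untreated pots.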

Amaranthus retroflexus = test: Post-emergence herbicidal action, AMARE; set-up: key: % herbicidal action vs untreated; 100 = plants died, 0 = like control
Outline: as §1

Viola tricolor = test: Post-emergence herbicidal action, VIOTR; set-up: key: % herbicidal action vs untreated; 100 = plants died, 0 = like control
Outline: as §1

Veronica persica = test: Pre-emergence herbicidal action, VERPE; set-up: key to Herbicidal action against VERPE: % activity: 100 = plants have died, 0 = like control plants; conditions: for herbicidal activity VERPE: dosage 320 g/ha, scored visually after 3 weeks vs untreated controls (100% = plants have died)
Outline: (§2)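 Sown pots (sandy loam) sprayed pre-emergence → greenhouse → visual rating at 3 weeks; % activity vs untreated control, 100% = dead.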

Setaria viridis = test: Pre-emergence herbicidal action, SETVI; set-up: key to Herbicidal action against SETVI: % activity: 100 = plants have died, 0 = like control plants; conditions: for herbicidal activity SETVI: dosage 320 g/ha, scored visually after 3 weeks vs untreated controls (100% = plants have died)
Outline: as §2

Echinochloa crus-galli = test: Pre-emergence herbicidal action, ECHCG; set-up: key to Herbicidal action against ECHCG: % activity: 100 = plants have died, 0 = like control plants; conditions: for herbicidal activity ECHCG: dosage 320 g/ha, scored visually after 3 weeks vs untreated controls (100% = plants have died)
Outline: as §2

[1] = comparative experiment, 20 g of a.i./ha

Structure (SMILES)	herbicidal action ABUTH (Abutilon theophrasti; post-emergence, dosage 80 g/ha)	herbicidal action AMARE (Amaranthus retroflexus; post-emergence, dosage 80 g/ha)	herbicidal action VIOTR (Viola tricolor; post-emergence, dosage 80 g/ha)	herbicidal activity VERPE (Veronica persica)	herbicidal activity SETVI (Setaria viridis)	herbicidal activity ECHCG (Echinochloa crus-galli)	Herbicidal action against SETVI (Setaria viridis; [1])	Herbicidal action against ECHCG (Echinochloa crus-galli; [1])	herbicidal action ABUTH (Abutilon theophrasti; Dosage 80 g/ha)	herbicidal action AMARE (Amaranthus retroflexus; Dosage 80 g/ha)	herbicidal action VIOTR (Viola tricolor; Dosage 80 g/ha)	Herbicidal action against VERPE (Veronica persica; [1])
C=CCSCc1c(C(F)(F)F)ccc(C(=O)Nc2nnnn2C)c1Cl [Example 1-308]	100%	100%	90%	100%	100%	100%	–	–	–	–	–	–
CSCc1c(C(F)(F)F)ccc(C(=O)Nc2nnnn2C)c1Br [Example 1-380]	90%	80%	100%	100%	100%	100%	–	–	–	–	–	–
Cn1nnnc1NC(=O)c1ccc(C(F)(F)F)c(C[S+](C)[O-])c1Br (stereo not drawn) [Example 1-381]	100%	100%	100%	100%	100%	100%	80	90	–	–	–	–
Cn1nnnc1NC(=O)c1ccc(C(F)(F)F)c(CS(C)(=O)=O)c1Br [Example 1-382, 2-bromo-3-[(methylsulfonyl)methyl]-N-(1-methyl-1H-tetrazol-5-yl)-4-(trifluoromethyl)benzamide]	–	–	–	100%	100%	100%	–	–	100	100	100	100
Cn1nnnc1NC(=O)c1ccc(Cl)c(CS(C)(=O)=O)c1Cl [Example 1-561]	–	–	–	90%	100%	100%	–	–	90	100	100	–
CCn1nnnc1NC(=O)c1ccc(C(F)F)c(CSC)c1C [Example 2-107]	–	–	–	100%	100%	100%	–	–	90	90	100	–
CCn1nnnc1NC(=O)c1ccc(C(F)(F)F)c(C[S+](C)[O-])c1OC (stereo not drawn) [Example 2-135]	–	–	–	100%	100%	100%	–	–	100	100	100	–
CCn1nnnc1NC(=O)c1ccc(C(F)(F)F)c(CS(C)(=O)=O)c1OC [Example 2-136]	–	–	–	100%	80%	100%	–	–	100	100	100	–
CCn1nnnc1NC(=O)c1ccc(C(F)(F)F)c(CSC)c1SC [Example 2-161]	90%	100%	100%	100%	100%	100%	–	–	–	–	–	–
CCn1nnnc1NC(=O)c1ccc(C(F)(F)F)c(CS(C)(=O)=O)c1SC [Example 2-163]	–	–	–	100%	100%	100%	–	–	100	100	100	–
CCn1nnnc1NC(=O)c1ccc(C)c(CSC)c1Cl [Example 2-287]	–	–	–	100%	90%	100%	–	–	80	90	100	–
CCn1nnnc1NC(=O)c1ccc(C(F)(F)F)c(CSC)c1Br [Example 2-380]	80%	80%	100%	100%	100%	100%	–	–	–	–	–	–
CCn1nnnc1NC(=O)c1ccc(C(F)(F)F)c(C[S+](C)[O-])c1Br (stereo not drawn) [Example 2-381]	90%	90%	100%	100%	100%	100%	–	–	–	–	–	–
CCn1nnnc1NC(=O)c1ccc(C(F)(F)F)c(CS(C)(=O)=O)c1Br [Example 2-382]	–	–	–	100%	100%	100%	–	–	100	90	100	–
CCSCc1c(C(F)(F)F)ccc(C(=O)Nc2nnnn2CC)c1Br [Example 2-383]	100%	100%	100%	100%	100%	100%	–	–	–	–	–	–
CCCn1nnnc1NC(=O)c1ccc(C(F)(F)F)c(CS(=O)(=O)CC)c1C [Example 3-88]	–	–	–	100%	100%	100%	–	–	80	80	100	–
CCCn1nnnc1NC(=O)c1ccc(C(F)F)c(CSC)c1C [Example 3-107]	–	–	–	100%	100%	100%	–	–	80	90	100	–
CCCn1nnnc1NC(=O)c1ccc(C(F)(F)F)c(CSC)c1OC [Example 3-134]	–	–	–	100%	100%	100%	–	–	100	100	100	–
CCCn1nnnc1NC(=O)c1ccc(C(F)(F)F)c(CS(C)(=O)=O)c1OC [Example 3-136]	–	–	–	100%	100%	100%	–	–	100	100	100	–
CCCn1nnnc1NC(=O)c1ccc(C(F)(F)F)c(CSC)c1Cl [Example 3-296]	–	–	–	100%	100%	100%	–	–	100	100	100	–
CCCn1nnnc1NC(=O)c1ccc(C(F)(F)F)c(C[S+](C)[O-])c1Cl (stereo not drawn) [Example 3-297]	80%	100%	100%	100%	100%	100%	–	–	–	–	–	–
CCCn1nnnc1NC(=O)c1ccc(C(F)(F)F)c(CSCC)c1Cl [Example 3-299]	–	–	–	100%	100%	100%	–	–	90	90	100	–
CCCn1nnnc1NC(=O)c1ccc(C(F)F)c(CSC)c1Cl [Example 3-320]	–	–	–	100%	100%	100%	–	–	100	80	100	–
